What all share (assay): pIC50, kinobeads binding competition
One assay deals with STK33 (UniProt Q9BYT3). A digest of the protocol:
(§1)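 Jurkat cells were exposed alive to nine compound concentrations (top 30 μM, 1:4 steps) or vehicle for 60 min at 37 °C and then lysed. In a second format, nine concentrations (top 30 μM, 1:5 steps) were incubated for 60 min at 4 °C with Jurkat lysate or with a 1:1:1:1 lysate mix of HEK293, K-562, HepG2 and placenta. Proteins captured on Kinobeads were digested and quantified by TMT10 LC-MS/MS. pIC50 values were derived from logistic dose-response fits (R drc package) of fold changes relative to vehicle, in biological duplicates.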

The next assay concerns the target UniProt Q96GD4. In a few lines: as §1
A further assay concerns the target UniProt P49841. A digest of the protocol: as §1
The target in the next assay is T1, UniProt Q13163.
T1 sequence (whole entry): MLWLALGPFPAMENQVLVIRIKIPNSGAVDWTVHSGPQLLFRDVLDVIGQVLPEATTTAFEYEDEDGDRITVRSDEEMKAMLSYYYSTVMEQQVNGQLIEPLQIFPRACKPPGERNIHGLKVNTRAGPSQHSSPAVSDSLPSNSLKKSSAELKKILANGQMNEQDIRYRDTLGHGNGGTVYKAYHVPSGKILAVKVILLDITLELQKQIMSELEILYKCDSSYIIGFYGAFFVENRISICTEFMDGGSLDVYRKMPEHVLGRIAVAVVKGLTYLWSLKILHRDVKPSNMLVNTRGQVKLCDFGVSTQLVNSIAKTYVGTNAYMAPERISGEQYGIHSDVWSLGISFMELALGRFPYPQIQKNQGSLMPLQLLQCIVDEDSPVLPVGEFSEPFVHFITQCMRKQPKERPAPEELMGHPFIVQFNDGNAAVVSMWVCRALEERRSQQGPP
A digest of the protocol: as §1

The target of a further assay is PRKCB (UniProt P05771). In a few lines:
as §1

The target in another assay is T2, SGK3 (UniProt Q96BR1).
T2 sequence (whole entry): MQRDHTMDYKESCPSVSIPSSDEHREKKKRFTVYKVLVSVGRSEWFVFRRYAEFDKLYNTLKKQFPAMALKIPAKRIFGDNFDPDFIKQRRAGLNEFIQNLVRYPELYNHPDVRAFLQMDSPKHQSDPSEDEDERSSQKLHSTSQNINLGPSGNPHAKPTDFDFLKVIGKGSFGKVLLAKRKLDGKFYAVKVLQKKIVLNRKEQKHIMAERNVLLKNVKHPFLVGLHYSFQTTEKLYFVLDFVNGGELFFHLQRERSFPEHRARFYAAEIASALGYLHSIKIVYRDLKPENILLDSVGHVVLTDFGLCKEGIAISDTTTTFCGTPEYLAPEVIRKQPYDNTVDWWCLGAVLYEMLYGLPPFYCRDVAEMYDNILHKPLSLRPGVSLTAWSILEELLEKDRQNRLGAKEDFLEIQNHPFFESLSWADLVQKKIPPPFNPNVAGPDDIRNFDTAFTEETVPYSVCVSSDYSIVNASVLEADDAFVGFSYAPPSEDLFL
A digest of the protocol: as §1

A further assay concerns the target CDK8 (UniProt P49336). In a few lines: as §1
In a further assay the target is T3, NLK (UniProt Q9UBE8).
T3 sequence (whole entry): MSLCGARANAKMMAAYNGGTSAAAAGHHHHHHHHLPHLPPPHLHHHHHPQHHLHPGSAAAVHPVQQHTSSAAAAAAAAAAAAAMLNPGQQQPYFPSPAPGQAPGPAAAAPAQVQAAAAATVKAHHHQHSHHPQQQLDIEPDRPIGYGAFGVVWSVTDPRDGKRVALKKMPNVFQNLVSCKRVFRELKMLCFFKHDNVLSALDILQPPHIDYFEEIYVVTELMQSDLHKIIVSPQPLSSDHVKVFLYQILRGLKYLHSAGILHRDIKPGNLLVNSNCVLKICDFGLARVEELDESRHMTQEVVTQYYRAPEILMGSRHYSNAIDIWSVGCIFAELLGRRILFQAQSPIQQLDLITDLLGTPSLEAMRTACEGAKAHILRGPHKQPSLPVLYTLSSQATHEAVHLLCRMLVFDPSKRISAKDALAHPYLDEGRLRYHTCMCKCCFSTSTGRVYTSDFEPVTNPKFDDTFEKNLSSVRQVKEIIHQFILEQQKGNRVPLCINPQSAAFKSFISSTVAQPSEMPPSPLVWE
In a few lines:
as §1

The next assay has as its target UniProt Q13233. A digest of the protocol: as §1
The target of a further assay is UniProt Q9Y2I7. In a few lines: as §1
The target in a further assay is TESK1 (UniProt Q15569). In a few lines:
as §1

The next assay concerns the target UniProt Q9NYV4. In a few lines:
as §1

In another assay the target is UniProt P17612. In a few lines: as §1
Another assay addresses T4, ICK (UniProt Q9UPZ9).
T4 sequence (whole entry): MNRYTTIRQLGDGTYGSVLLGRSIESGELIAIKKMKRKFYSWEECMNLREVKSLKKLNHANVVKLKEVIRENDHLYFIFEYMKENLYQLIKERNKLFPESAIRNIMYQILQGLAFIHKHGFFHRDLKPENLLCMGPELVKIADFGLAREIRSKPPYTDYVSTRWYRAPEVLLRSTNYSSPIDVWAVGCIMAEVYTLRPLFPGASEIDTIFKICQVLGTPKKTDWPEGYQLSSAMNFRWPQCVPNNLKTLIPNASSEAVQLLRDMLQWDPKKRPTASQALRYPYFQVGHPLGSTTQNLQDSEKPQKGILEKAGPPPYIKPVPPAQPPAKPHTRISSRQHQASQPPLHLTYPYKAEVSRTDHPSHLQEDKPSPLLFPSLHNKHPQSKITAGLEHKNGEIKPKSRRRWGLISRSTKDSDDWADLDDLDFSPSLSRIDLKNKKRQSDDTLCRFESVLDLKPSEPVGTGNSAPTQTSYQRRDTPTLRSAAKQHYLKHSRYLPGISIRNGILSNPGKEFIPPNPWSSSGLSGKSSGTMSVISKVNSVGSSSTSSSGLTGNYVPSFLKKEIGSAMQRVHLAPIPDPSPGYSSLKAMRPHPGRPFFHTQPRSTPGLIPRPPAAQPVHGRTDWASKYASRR
In a few lines:
as §1

The text below walks through data of the supplement of paper PMC12076712.

By pIC50 is commonly meant the IC50 on a negative log10 scale, so that one unit is a factor of ten. Low values mean a high IC50, high ones a low IC50.

A value given as a limit tells only on which side of the number the result lay.

CDK8, sequence (P49336 whole entry): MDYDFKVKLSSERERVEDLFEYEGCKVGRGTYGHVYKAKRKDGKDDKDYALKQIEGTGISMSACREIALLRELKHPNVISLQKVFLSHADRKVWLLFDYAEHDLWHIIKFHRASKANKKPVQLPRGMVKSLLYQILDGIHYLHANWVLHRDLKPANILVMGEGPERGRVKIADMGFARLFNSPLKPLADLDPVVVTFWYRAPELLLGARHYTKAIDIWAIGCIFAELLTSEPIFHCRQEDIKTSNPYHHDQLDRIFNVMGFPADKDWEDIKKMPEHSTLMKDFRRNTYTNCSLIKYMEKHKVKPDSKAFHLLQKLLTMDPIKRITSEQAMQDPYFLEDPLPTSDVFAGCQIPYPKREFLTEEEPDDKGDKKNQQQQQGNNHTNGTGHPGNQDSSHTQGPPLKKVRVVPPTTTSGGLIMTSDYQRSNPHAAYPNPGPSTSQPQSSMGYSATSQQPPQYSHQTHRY
TESK1, sequence (Q15569 whole entry, looked up): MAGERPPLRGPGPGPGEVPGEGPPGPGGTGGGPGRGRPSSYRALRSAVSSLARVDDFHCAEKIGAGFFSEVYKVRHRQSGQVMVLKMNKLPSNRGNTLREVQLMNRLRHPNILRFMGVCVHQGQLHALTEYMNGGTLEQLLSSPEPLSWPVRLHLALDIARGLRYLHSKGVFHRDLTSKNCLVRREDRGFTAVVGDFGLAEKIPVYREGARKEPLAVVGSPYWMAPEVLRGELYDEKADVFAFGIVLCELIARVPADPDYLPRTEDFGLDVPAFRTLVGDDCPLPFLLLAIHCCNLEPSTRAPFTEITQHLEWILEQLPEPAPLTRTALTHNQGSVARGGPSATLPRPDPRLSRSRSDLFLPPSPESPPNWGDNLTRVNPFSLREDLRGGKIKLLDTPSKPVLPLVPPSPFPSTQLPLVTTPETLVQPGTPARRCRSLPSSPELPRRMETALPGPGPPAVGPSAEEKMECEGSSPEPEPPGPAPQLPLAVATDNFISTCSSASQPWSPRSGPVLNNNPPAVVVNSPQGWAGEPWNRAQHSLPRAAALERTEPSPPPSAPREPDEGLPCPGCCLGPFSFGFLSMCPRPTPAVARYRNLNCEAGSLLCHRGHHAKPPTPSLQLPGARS
UniProt Q96GD4, sequence (Q96GD4 whole entry): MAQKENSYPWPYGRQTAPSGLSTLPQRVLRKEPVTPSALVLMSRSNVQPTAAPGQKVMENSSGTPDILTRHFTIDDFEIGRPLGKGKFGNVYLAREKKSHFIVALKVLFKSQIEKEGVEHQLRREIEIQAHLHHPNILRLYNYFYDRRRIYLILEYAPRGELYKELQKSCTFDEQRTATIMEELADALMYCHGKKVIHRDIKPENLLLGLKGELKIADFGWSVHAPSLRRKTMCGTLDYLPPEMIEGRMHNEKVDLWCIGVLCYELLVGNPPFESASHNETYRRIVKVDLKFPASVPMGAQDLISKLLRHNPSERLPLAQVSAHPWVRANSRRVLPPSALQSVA
UniProt P49841, sequence (P49841 whole entry, looked up): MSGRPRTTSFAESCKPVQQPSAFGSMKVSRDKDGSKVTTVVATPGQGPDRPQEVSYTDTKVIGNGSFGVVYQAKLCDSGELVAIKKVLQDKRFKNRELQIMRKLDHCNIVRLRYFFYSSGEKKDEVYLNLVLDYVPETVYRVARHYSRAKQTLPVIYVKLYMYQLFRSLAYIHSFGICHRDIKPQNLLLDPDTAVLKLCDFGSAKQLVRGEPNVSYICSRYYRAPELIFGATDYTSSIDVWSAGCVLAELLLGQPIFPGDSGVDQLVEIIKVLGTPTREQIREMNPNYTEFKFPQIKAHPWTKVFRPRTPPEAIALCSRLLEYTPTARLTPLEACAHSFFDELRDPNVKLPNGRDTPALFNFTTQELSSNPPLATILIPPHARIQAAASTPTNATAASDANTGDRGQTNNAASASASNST
UniProt Q13233, sequence (Q13233 whole entry): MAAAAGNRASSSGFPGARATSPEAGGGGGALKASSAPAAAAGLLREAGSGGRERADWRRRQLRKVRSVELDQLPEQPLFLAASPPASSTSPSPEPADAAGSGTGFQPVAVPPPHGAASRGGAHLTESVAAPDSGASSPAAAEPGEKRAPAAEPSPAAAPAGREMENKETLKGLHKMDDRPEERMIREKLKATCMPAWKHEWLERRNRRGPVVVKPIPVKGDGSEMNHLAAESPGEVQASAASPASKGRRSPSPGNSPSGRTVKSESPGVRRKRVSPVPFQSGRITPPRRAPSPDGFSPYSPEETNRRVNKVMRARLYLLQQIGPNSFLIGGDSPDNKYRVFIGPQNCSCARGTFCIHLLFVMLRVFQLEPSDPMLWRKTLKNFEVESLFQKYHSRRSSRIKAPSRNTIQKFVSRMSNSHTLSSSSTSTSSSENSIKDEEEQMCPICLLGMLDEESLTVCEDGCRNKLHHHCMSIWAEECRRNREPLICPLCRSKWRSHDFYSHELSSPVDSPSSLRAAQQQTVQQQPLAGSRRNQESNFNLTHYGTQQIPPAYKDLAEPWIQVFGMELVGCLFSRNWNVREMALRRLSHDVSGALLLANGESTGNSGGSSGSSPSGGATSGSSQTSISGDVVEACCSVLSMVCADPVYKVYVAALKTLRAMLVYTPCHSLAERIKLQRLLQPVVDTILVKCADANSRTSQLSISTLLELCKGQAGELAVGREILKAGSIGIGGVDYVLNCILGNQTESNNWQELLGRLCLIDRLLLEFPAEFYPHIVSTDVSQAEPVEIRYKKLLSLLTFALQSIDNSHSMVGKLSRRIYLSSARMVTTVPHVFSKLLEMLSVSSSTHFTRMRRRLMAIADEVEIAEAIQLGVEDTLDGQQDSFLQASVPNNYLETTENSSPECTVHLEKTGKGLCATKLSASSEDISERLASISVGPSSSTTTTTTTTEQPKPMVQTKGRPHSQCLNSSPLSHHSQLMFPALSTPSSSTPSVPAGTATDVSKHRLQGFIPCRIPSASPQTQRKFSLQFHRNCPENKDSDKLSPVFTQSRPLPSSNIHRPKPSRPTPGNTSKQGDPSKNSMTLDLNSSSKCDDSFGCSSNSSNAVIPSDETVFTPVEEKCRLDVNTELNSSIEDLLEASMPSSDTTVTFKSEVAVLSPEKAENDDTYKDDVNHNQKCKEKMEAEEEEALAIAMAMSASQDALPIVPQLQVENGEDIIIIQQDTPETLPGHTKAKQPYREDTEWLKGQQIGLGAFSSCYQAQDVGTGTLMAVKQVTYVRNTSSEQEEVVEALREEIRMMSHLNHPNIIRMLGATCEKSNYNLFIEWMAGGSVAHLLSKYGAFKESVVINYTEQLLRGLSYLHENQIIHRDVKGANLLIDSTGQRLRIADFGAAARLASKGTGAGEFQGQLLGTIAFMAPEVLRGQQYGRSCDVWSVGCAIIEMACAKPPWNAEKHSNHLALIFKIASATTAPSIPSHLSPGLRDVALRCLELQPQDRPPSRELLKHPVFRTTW
STK33, sequence (Q9BYT3 whole entry, looked up): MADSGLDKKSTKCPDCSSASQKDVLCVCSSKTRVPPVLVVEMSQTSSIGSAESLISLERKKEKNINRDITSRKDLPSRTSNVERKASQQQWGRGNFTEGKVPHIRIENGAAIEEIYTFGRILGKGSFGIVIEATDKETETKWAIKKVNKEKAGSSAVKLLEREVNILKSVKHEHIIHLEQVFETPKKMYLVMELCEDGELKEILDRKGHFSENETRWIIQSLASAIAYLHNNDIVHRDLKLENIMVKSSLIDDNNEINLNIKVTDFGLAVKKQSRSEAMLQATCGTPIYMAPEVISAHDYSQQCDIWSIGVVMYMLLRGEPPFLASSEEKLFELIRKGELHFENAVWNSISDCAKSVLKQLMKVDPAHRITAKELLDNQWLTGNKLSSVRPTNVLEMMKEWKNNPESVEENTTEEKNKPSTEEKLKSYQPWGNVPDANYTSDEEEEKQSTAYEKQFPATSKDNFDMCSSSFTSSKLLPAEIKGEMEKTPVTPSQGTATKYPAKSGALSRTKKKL
PRKCB, sequence (P05771 whole entry, looked up): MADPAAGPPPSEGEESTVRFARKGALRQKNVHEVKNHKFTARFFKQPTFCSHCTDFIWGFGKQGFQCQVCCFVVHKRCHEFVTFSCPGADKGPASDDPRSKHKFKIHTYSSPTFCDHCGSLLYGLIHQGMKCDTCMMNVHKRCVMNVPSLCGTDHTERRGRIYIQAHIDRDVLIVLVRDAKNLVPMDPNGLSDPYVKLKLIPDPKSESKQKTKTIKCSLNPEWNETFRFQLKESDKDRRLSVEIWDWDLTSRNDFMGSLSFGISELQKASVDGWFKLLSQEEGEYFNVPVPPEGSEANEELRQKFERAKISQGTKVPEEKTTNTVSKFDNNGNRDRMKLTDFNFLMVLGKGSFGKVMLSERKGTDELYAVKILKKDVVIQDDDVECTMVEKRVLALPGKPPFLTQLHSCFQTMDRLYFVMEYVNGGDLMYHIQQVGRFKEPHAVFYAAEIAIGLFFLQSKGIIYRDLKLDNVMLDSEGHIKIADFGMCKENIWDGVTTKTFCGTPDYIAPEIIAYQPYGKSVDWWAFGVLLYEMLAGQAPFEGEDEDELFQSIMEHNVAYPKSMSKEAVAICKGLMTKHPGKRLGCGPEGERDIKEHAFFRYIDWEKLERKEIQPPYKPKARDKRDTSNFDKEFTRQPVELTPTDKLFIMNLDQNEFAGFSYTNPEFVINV

Turning to `Cc1cc(Nc2cc(C(=O)NCCNC(=O)OC3CC/C=C/CCC3)nc(N3CCN(Cc4ccc(S(=O)(=O)F)cc4)CC3)n2)n[nH]1` (stereo not given), the pIC50 was less than 4.52 at STK33 (cell material: Lysate mix); 4.92 at UniProt Q96GD4 (cell material: Lysate mix); less than 4.52 on UniProt P49841 (cell material: Lysate mix); less than 4.52 at UniProt Q13163 (cell material: Lysate mix); less than 4.52 on PRKCB (cell material: Lysate mix); 5.22 at SGK3 (cell material: Lysate mix). Moreover, the negative-log IC50 (pIC50) at CDK8 (cell material: Lysate mix), on NLK (cell material: Lysate mix), on UniProt Q13233 (cell material: Lysate mix), on UniProt Q9Y2I7 (cell material: Lysate mix), on TESK1 (cell material: Lysate mix) and at UniProt Q9NYV4 (cell material: Lysate mix) was less than 4.52 in each case. Besides, the pIC50 at UniProt P17612 (cell material: Lysate mix) and at ICK (cell material: Lysate mix) was less than 4.52 throughout.

As to `CCNC(=O)c1cc(Nc2cc(C)[nH]n2)nc(N2CCN(Cc3ccc(S(=O)(=O)F)cc3)CC2)n1`, the pIC50 is less than 4.52 on STK33 (cell material: Lysate mix); 6.13 on UniProt Q96GD4 (cell material: Lysate mix); less than 4.52 at UniProt P49841 (cell material: Lysate mix); 4.73 at UniProt Q13163 (cell material: Lysate mix); less than 4.52 at PRKCB (cell material: Lysate mix); 5.98 on SGK3 (cell material: Lysate mix). Besides, the pIC50 on CDK8 (cell material: Lysate mix), on NLK (cell material: Lysate mix), on UniProt Q13233 (cell material: Lysate mix), at UniProt Q9Y2I7 (cell material: Lysate mix), at TESK1 (cell material: Lysate mix) and on UniProt Q9NYV4 (cell material: Lysate mix) was less than 4.52 each time. Further, the values for the pIC50 on UniProt P17612 (cell material: Lysate mix) and on ICK (cell material: Lysate mix) were less than 4.52 and 5.64, respectively.

Turning to `C#CCNC(=O)c1cc(Nc2cc(C3CC3)[nH]n2)nc(N2CCN(Cc3ccc(S(=O)(=O)F)cc3)CC2)n1`, the pIC50 on STK33 (cell material: Jurkat cells) amounted to 6.2; at STK33 (cell material: Jurkat lysate), 5.12; on STK33 (cell material: Lysate mix) it was 5.82; on UniProt Q96GD4 (cell material: Jurkat cells), 6.67; at UniProt Q96GD4 (cell material: Jurkat lysate), 5.72; at UniProt Q96GD4 (cell material: Lysate mix), 6.22. In addition, the pIC50 is 5.26 on UniProt P49841 (cell material: Jurkat cells); less than 4.52 on UniProt P49841 (cell material: Jurkat lysate); less than 4.52 on UniProt P49841 (cell material: Lysate mix); 5.71 on UniProt Q13163 (cell material: Jurkat cells); 4.88 at UniProt Q13163 (cell material: Jurkat lysate); 5.42 at UniProt Q13163 (cell material: Lysate mix). For the same molecule, the pIC50 on PRKCB (cell material: Jurkat cells) is 5.46; on PRKCB (cell material: Jurkat lysate), less than 4.52; at PRKCB (cell material: Lysate mix), less than 4.52; at SGK3 (cell material: Jurkat cells), 6.6; on SGK3 (cell material: Jurkat lysate), 5.65; at SGK3 (cell material: Lysate mix), 5.96. Further, the pIC50 on CDK8 (cell material: Jurkat cells), at CDK8 (cell material: Jurkat lysate), on CDK8 (cell material: Lysate mix), on NLK (cell material: Jurkat lysate), on NLK (cell material: Lysate mix) and at UniProt Q13233 (cell material: Jurkat lysate) was less than 4.52 throughout. The pIC50 on UniProt Q13233 (cell material: Lysate mix) was less than 4.52; on UniProt Q9Y2I7 (cell material: Jurkat cells), 5.27; at UniProt Q9Y2I7 (cell material: Jurkat lysate) it was less than 4.52; at UniProt Q9Y2I7 (cell material: Lysate mix), less than 4.52; at TESK1 (cell material: Jurkat lysate), less than 4.52; on TESK1 (cell material: Lysate mix), less than 4.52. Moreover, the negative logarithm of the IC50 (pIC50) at UniProt Q9NYV4 (cell material: Jurkat cells) is 6.33; on UniProt Q9NYV4 (cell material: Lysate mix) it was 5.34; on UniProt P17612 (cell material: Jurkat cells) it was less than 4.52; on UniProt P17612 (cell material: Jurkat lysate), less than 4.52; on UniProt P17612 (cell material: Lysate mix), less than 4.52; on ICK (cell material: Jurkat lysate), 6.22. Besides, the pIC50 on ICK (cell material: Lysate mix) is 6.53.
